According to ChEMBL document CHEMBL1142870, “Antitumor potential of crown ethers: structure-activity relationships, cell cycle disturbances, and cell death studies of a series of ionophores” (J Med Chem, 2007):

Experiments:
NCI-H460 = test: Antiproliferative activity against H460 cells after 72 hrs by MTT assay; format: functional, cell-based; details: Homo sapiens, NCI-H460, 72 h
HeLa = test: Antiproliferative activity against HeLa cells after 72 hrs by MTT assay; format: functional, cell-based; details: Homo sapiens
MIA PaCa-2 [1] = test: Antiproliferative activity against MiaPaCa2 cells after 72 hrs by MTT assay; format: functional, cell-based; details: Homo sapiens, MIA PaCa-2, 72 h
SW-620 = test: Antiproliferative activity against SW620 cells after 72 hrs by MTT assay; format: functional, cell-based; details: Homo sapiens, SW-620, 72 h
MCF7 = test: Antiproliferative activity against MCF7 cells after 72 hrs by MTT assay; format: functional, cell-based; details: Homo sapiens, MCF7, 72 h
MIA PaCa-2 [2] = test: Cell cycle arrest in MiaPaCa2 cells by accumulation at G1 phase at 10 nM; format: functional, cell-based; details: Homo sapiens, TDE = time-dependent effect
MIA PaCa-2 [3] = test: Cell cycle arrest in MiaPaCa2 cells by accumulation at SubG1 phase at 10 nM after 24 hrs; format: functional, Homo sapiens
MIA PaCa-2 [4] = test: Cell cycle arrest in MiaPaCa2 cells by accumulation at G1/G0 phase at 10 nM after 24 hrs; format: functional, Homo sapiens
MIA PaCa-2 [5] = test: Cell cycle arrest at MiaPaCa2 cells by accumulation at S phase at 10 nM after 24 hrs; format: functional, Homo sapiens
MIA PaCa-2 [6] = test: Cell cycle arrest at MiaPaCa2 cells by accumulation at G2/M phase at 10 nM after 24 hrs; format: functional, Homo sapiens
MIA PaCa-2 [7] = test: Cell cycle arrest in MiaPaCa2 cells by accumulation at SubG1 phase at 10 nM after 36 hrs; format: functional, Homo sapiens
MIA PaCa-2 [8] = test: Cell cycle arrest in MiaPaCa2 cells by accumulation at G1/G0 phase at 10 nM after 36 hrs; format: functional, Homo sapiens
MIA PaCa-2 [9] = test: Cell cycle arrest at MiaPaCa2 cells by accumulation at S phase at 10 nM after 36 hrs; format: functional, Homo sapiens
MIA PaCa-2 [10] = test: Cell cycle arrest at MiaPaCa2 cells by accumulation at G2/M phase at 10 nM after 36 hrs; format: functional, Homo sapiens
MIA PaCa-2 [11] = test: Cell cycle arrest in MiaPaCa2 cells by accumulation at SubG1 phase at 10 nM after 48 hrs; format: functional, Homo sapiens
MIA PaCa-2 [12] = test: Cell cycle arrest in MiaPaCa2 cells by accumulation at G1/G0 phase at 10 nM after 48 hrs; format: functional, Homo sapiens
MIA PaCa-2 [13] = test: Cell cycle arrest at MiaPaCa2 cells by accumulation at S phase at 10 nM after 48 hrs; format: functional, Homo sapiens
MIA PaCa-2 [14] = test: Cell cycle arrest at MiaPaCa2 cells by accumulation at G2/M phase at 10 nM after 48 hrs; format: functional, Homo sapiens

SMILES	IC50 (NCI-H460)	IC50 (HeLa)	IC50 (MIA PaCa-2 [1])	IC50 (SW-620)	IC50 (MCF7)	other results
c1ccc(CNCCOCCOCCNCc2ccccc2)cc1	31 µM	24 µM	> 100 µM	39 µM	> 100 µM	
CC(C)(C)c1cc2c(c(C(C)(C)C)c1)OCCOCCOc1c(cc(C(C)(C)C)cc1C(C)(C)C)OCCOCCO2	19 µM	10 µM	15 µM	19 µM	8 µM	
COC(=O)[C@H](NC(=O)CN1CCOCCOCCN(CC(=O)N[C@@H](C(=O)OC)c2ccccc2)CCOCCOCC1)c1ccccc1	> 100 µM	> 100 µM	> 100 µM	≥ 100 µM	> 100 µM	
c1ccc2c(c1)OCCOCCOCCOCCOc1ccccc1OCCOCCOCCOCCO2	9 µM	11 µM	7 µM	17 µM	30 µM	
OCCN(CCO)Cc1ccccc1	> 100 µM	> 100 µM	> 100 µM	> 100 µM	> 100 µM	
c1ccc(CN2CCOCCOCCN(Cc3ccccc3)CCOCCOCC2)cc1	25 µM	14 µM	23 µM	6 µM	25 µM	
CC(C)(C)c1ccc(O)c(O)c1	22 µM	24 µM	20 µM	22 µM	23 µM	
CC(C)(C)c1cc(O)c(OCCOCCOc2c(O)cc(C(C)(C)C)cc2C(C)(C)C)c(C(C)(C)C)c1	8 µM	11 µM	18 µM	19 µM	29 µM	
CC(C)[C@@H]1NC(=O)[C@H](C)OC(=O)[C@@H](C(C)C)NC(=O)[C@@H](C(C)C)OC(=O)[C@H](C(C)C)NC(=O)[C@H](C)OC(=O)[C@@H](C(C)C)NC(=O)[C@@H](C(C)C)OC(=O)[C@H](C(C)C)NC(=O)[C@H](C)OC(=O)[C@@H](C(C)C)NC(=O)[C@@H](C(C)C)OC1=O [VALINOMYCIN]	0.001 µM	0.001 µM	0.001 µM	0.0001 µM	0.5 µM	Activity (MIA PaCa-2 [2]): tde; Activity (MIA PaCa-2 [3]): 35%; Activity (MIA PaCa-2 [4]): 60%; Activity (MIA PaCa-2 [5]): 24%; Activity (MIA PaCa-2 [6]): 24%; Activity (MIA PaCa-2 [7]): 42%; Activity (MIA PaCa-2 [8]): 63%; Activity (MIA PaCa-2 [9]): 12%; Activity (MIA PaCa-2 [10]): 23%; Activity (MIA PaCa-2 [11]): 49%; Activity (MIA PaCa-2 [12]): 62%; Activity (MIA PaCa-2 [13]): 19%; Activity (MIA PaCa-2 [14]): 18%
c1ccc2c(c1)OCCOCCOCCOc1ccccc1OCCOCCOCCO2	24 µM	21 µM	32 µM	72 µM	> 100 µM	
O=C(NCC(=O)N1CCOCCOCCN(C(=O)CNC(=O)OCc2ccccc2)CCOCCOCC1)OCc1ccccc1	> 100 µM	37 µM	71 µM	40 µM	44 µM	
c1ccc(CN2CCOCCOCCOCCOCC2)cc1	> 100 µM	> 100 µM	> 100 µM	> 100 µM	> 100 µM	
c1ccc2c(c1)OCCOCCOc1ccccc1OCCOCCO2	28 µM	17 µM	28 µM	17 µM	49 µM	
C1CCC2OCCOCCOC3CCCCC3OCCOCCOC2C1 (stereo not drawn) [ICOSAHYDRODIBENZO[B,K][1,4,7,10,13,16]HEXAOXACYCLOOCTADECINE]	16 µM	25 µM	16 µM	7 µM	36 µM	
